Assay results published in ChEMBL document CHEMBL4346707, “Synthesis and biological evaluation of pyrazolo[3,4-b]pyridine-3-yl pyrimidine derivatives as sGC stimulators for the treatment of pulmonary hypertension” (Eur J Med Chem, 2019).
Calls of active or inactive are those of the source. The calls are words filed in the database; no cut-off is given here.

How the values were obtained:
Rattus norvegicus = species: Rattus norvegicus; test: Stimulatory activity at sGC in Sprague-Dawley rat thoracic aorta assessed as inhibition of norepinephrine-induced contraction at 1 uM by JZ100 strain guages based isometric analysis relative to control; set-up: scale not given: the % may be the effect or the level left
[1] = Stimulatory activity at sGC in Sprague-Dawley rat thoracic aorta assessed as inhibition of norepinephrine-induced contraction by JZ100 strain guages based isometric analysis
Heart [2] = test: Cardioprotective activity in Langendorff perfused Sprague-Dawley rat heart assessed as reduction of coronary perfusion pressure; format: functional, tissue-based
Heart [3] = test: Cardioprotective activity in Langendorff perfused Sprague-Dawley rat heart assessed as increase in coronary artery blood flow; format: functional, tissue-based
Heart [4] = test: Cardioprotective activity in Langendorff perfused Sprague-Dawley rat heart assessed as reduction of coronary perfusion pressure at 0.01 to 3 uM relative to control; format: functional
Heart [5] = test: Cardioprotective activity in Langendorff perfused Sprague-Dawley rat heart assessed as increase in coronary artery relaxation; format: functional, tissue-based
Heart [6] = test: Potency index. ratio of EC50 of riociguat to EC50 of compound for cardioprotective activity in Langendorff perfused Sprague-Dawley rat heart assessed as increase in coronary artery relaxation; format: functional
[7] = Tmax in male Beagle dog at 1.5 mg/kg, po by LC-MS/MS analysis; format: ADME, organism-based, Canis lupus familiaris; settings: in vivo
[8] = AUC (0 to infinity) in male Beagle dog at 0.5 mg/kg, po by LC-MS/MS analysis; format: ADME, organism-based, Canis lupus familiaris; set-up: dose 0.5 mg/kg, route oral, time infinity; settings: in vivo
[9] = Tmax in female Beagle dog at 0.5 mg/kg, po by LC-MS/MS analysis; format: ADME, organism-based, Canis lupus familiaris; settings: in vivo
[10] = Apparent volume of distribution in male Beagle dog at 1.5 mg/kg, po by LC-MS/MS analysis; format: ADME, organism-based, Canis lupus familiaris; settings: in vivo
[11] = Apparent clearance in female Beagle dog at 0.5 mg/kg, po by LC-MS/MS analysis; format: ADME, organism-based, Canis lupus familiaris; settings: in vivo, read-out: CL(app) (converted)
[12] = Apparent volume of distribution in male Beagle dog at 4.5 mg/kg, po by LC-MS/MS analysis; format: ADME, organism-based, Canis lupus familiaris; settings: in vivo
[13] = Cmax in male Beagle dog at 1.5 mg/kg, po by LC-MS/MS analysis; format: ADME, organism-based, Canis lupus familiaris; set-up: dose 1.5 mg/kg, route oral; settings: in vivo
[14] = Tmax in male Beagle dog at 0.5 mg/kg, po by LC-MS/MS analysis; format: ADME, organism-based, Canis lupus familiaris; settings: in vivo
[15] = AUC (0 to infinity) in male Beagle dog at 1.5 mg/kg, po by LC-MS/MS analysis; format: ADME, organism-based, Canis lupus familiaris; set-up: dose 1.5 mg/kg, route oral, time infinity; settings: in vivo
[16] = Apparent volume of distribution in male Beagle dog at 0.5 mg/kg, po by LC-MS/MS analysis; format: ADME, organism-based, Canis lupus familiaris; settings: in vivo
[17] = AUC (0 to infinity) in female Beagle dog at 0.5 mg/kg, po by LC-MS/MS analysis; format: ADME, organism-based, Canis lupus familiaris; set-up: dose 0.5 mg/kg, route oral, time infinity; settings: in vivo
[18] = Apparent clearance in male Beagle dog at 1.5 mg/kg, po by LC-MS/MS analysis; format: ADME, organism-based, Canis lupus familiaris; settings: in vivo, read-out: CL(app) (converted)
[19] = Apparent clearance in male Beagle dog at 0.5 mg/kg, po by LC-MS/MS analysis; format: ADME, organism-based, Canis lupus familiaris; settings: in vivo, read-out: CL(app) (converted)
[20] = Apparent clearance in male Beagle dog at 4.5 mg/kg, po by LC-MS/MS analysis; format: ADME, organism-based, Canis lupus familiaris; settings: in vivo, read-out: CL(app) (converted)
[21] = AUC (0 to infinity) in male Beagle dog at 4.5 mg/kg, po by LC-MS/MS analysis; format: ADME, organism-based, Canis lupus familiaris; set-up: dose 4.5 mg/kg, route oral, time infinity; settings: in vivo
[22] = Apparent volume of distribution in female Beagle dog at 0.5 mg/kg, po; format: ADME, organism-based, Canis lupus familiaris; settings: in vivo
[23] = Half life in male Beagle dog at 4.5 mg/kg, po by LC-MS/MS analysis; format: ADME, organism-based, Canis lupus familiaris; settings: in vivo
[24] = Half life in female Beagle dog at 0.5 mg/kg, po by LC-MS/MS analysis; format: ADME, organism-based, Canis lupus familiaris; settings: in vivo
[25] = Half life in male Beagle dog at 1.5 mg/kg, po by LC-MS/MS analysis; format: ADME, organism-based, Canis lupus familiaris; settings: in vivo
[26] = Half life in male Beagle dog at 0.5 mg/kg, po by LC-MS/MS analysis; format: ADME, organism-based, Canis lupus familiaris; settings: in vivo
[27] = Cmax in female Beagle dog at 0.5 mg/kg, po by LC-MS/MS analysis; format: ADME, organism-based, Canis lupus familiaris; set-up: dose 0.5 mg/kg, route oral; settings: in vivo
[28] = Cmax in male Beagle dog at 0.5 mg/kg, po by LC-MS/MS analysis; format: ADME, organism-based, Canis lupus familiaris; set-up: dose 0.5 mg/kg, route oral; settings: in vivo
[29] = Oral bioavailability (0 to infinity) in male Beagle dog at 0.5 mg/kg by LC-MS/MS analysis; format: ADME, organism-based, Canis lupus familiaris; settings: in vivo
[30] = Tmax in male Beagle dog at 4.5 mg/kg, po by LC-MS/MS analysis; format: ADME, organism-based, Canis lupus familiaris; settings: in vivo
[31] = Cmax in male Beagle dog at 4.5 mg/kg, po by LC-MS/MS analysis; format: ADME, organism-based, Canis lupus familiaris; set-up: dose 4.5 mg/kg, route oral; settings: in vivo

In the case of `CC(C)OC(=O)N(C)c1c(N)nc(-c2nn(Cc3cccnc3F)c3ncccc23)nc1N`, the Activity (Rattus norvegicus) is reported as 1.9%.
`COC(=O)N(C)c1c(N)nc(-c2nn(Cc3cccs3)c3ncccc23)nc1N` gave an Activity (Rattus norvegicus) of 45.1%.
For `CCOC(=O)N(CC)c1c(N)nc(-c2nn(Cc3ccc(F)s3)c3ncccc23)nc1N`, the Activity (Rattus norvegicus) was 48.4%.
Compound `CCOC(=O)Nc1c(N)nc(-c2nn(Cc3sccc3F)c3ncccc23)nc1N` has an Activity (Rattus norvegicus) of 27.3%.
Compound `CCN(C(=O)OC(C)C)c1c(N)nc(-c2nn(Cc3sccc3F)c3ncccc23)nc1N` has an EC50 [1] of 870 nM and an Activity (Rattus norvegicus) of 76.2%.
In the case of `COC(=O)N(C)c1c(N)nc(-c2nn(Cc3ccccc3F)c3ncccc23)nc1N` [RIOCIGUAT], the EC50 (Heart [2]) is reported as 270 nM, the EC50 [1] is reported as 300 nM and the Activity (Rattus norvegicus) is reported as 88.9%.
Work on `COC(=O)N(C)c1c(N)nc(-c2nn(Cc3ccc(F)s3)c3ncccc23)nc1N` yielded an Activity (Rattus norvegicus) of 39.2%.
In the case of `CCOC(=O)N(C)c1c(N)nc(-c2nn(Cc3cncc(C)c3)c3ncccc23)nc1N`, the Activity (Rattus norvegicus) is reported as 47.4%.
Compound `CCOC(=O)N(CC)c1c(N)nc(-c2nn(Cc3cncc(C)c3)c3ncccc23)nc1N` has an Activity (Rattus norvegicus) of 3%.
With `CCN(C(=O)OC)c1c(N)nc(-c2nn(Cc3sccc3F)c3ncccc23)nc1N` the Activity (Heart [3]) was “Active”, the Emax (Heart [4]) was 60% and the Activity (Heart [2]) was “Dose-dependent effect”. For the same compound, the EC50 (Heart [2]) was 180 nM, the Activity (Heart [5]) was “Active” and the EC50 [1] was 210 nM. The Activity (Rattus norvegicus) was 85.4%.
With `COC(=O)N(C)c1c(N)nc(-c2nn(Cc3cccnc3F)c3ncccc23)nc1N` the Activity (Rattus norvegicus) was 21.1%.
In the case of `CCN(C(=O)OC(C)C)c1c(N)nc(-c2nn(Cc3ccc(F)s3)c3ncccc23)nc1N`, the Activity (Rattus norvegicus) is reported as 41%.
In the case of `COC(=O)N(C)c1c(N)nc(-c2nn(Cc3sccc3F)c3ncccc23)nc1N`, the Activity (Heart [3]) is reported as “Active”, the “Ratio EC50” value (Heart [6]) is reported as 3 and the Tmax [7] is reported as 0.75 h. The AUC(0-inf) [8] was 213 ng·h/mL, the Tmax [9] was 1.25 h and the Vz [10] was 43.47 L/kg. For the same compound, the CL/F [11] was 42.3 mL/min/kg, the Emax (Heart [4]) was 60% and the Activity (Heart [2]) was “Dose-dependent effect”. The EC50 (Heart [2]) was 86 nM, the Vz [12] was 41.14 L/kg and the Cmax [13] was 106 ng/mL. For the same compound, the Activity (Heart [5]) was “Active”, the Tmax [14] was 0.6 h and the AUC(0-inf) [15] was 373 ng·h/mL. The Vz [16] was 7.9 L/kg, the AUC(0-inf) [17] was 198 ng·h/mL and the EC50 [1] was 110 nM. It also gave a CL/F [18] of 96 mL/min/kg, a CL/F [19] of 41 mL/min/kg and a CL/F [20] of 103 mL/min/kg. The AUC(0-inf) [21] was 874 ng·h/mL, the Vz [22] was 6.38 L/kg and the Activity (Rattus norvegicus) was 87%. It also gave a half-life [23] of 3.77 h, a half-life [24] of 1.75 h and a half-life [25] of 3.24 h. The half-life [26] was 2.04 h, the Cmax [27] was 72.4 ng/mL and the Cmax [28] was 83.8 ng/mL. It also gave a bioavailability [29] of 80%, a Tmax [30] of 1.55 h and a Cmax [31] of 175 ng/mL.
Work on `COC(=O)N(C)c1c(N)nc(-c2nn(Cc3cncc(C)c3)c3ncccc23)nc1N` yielded an Activity (Rattus norvegicus) of 31%.
In the case of `CC(C)OC(=O)Nc1c(N)nc(-c2nn(Cc3sccc3F)c3ncccc23)nc1N`, the Activity (Rattus norvegicus) is reported as 42.3%.
In the case of `Cc1cncc(Cn2nc(-c3nc(N)c(N(C)C(=O)OC(C)C)c(N)n3)c3cccnc32)c1`, the Activity (Rattus norvegicus) is reported as 32.4%.
In the case of `CCN(C(=O)OC)c1c(N)nc(-c2nn(Cc3cncc(C)c3)c3ncccc23)nc1N`, the Activity (Rattus norvegicus) is reported as 2.8%.
`COC(=O)Nc1c(N)nc(-c2nn(Cc3cccnc3F)c3ncccc23)nc1N` showed an Activity (Rattus norvegicus) of 11.8%.
For `CCN(C(=O)OC(C)C)c1c(N)nc(-c2nn(Cc3cncc(C)c3)c3ncccc23)nc1N`, the Activity (Rattus norvegicus) was 0%.
Compound `CC(C)OC(=O)N(C)c1c(N)nc(-c2nn(Cc3ccc(F)s3)c3ncccc23)nc1N` has an Activity (Rattus norvegicus) of 38.1%.
`COC(=O)Nc1c(N)nc(-c2nn(Cc3ccc(F)s3)c3ncccc23)nc1N` showed an Activity (Rattus norvegicus) of 30%.
For `COC(=O)Nc1c(N)nc(-c2nn(Cc3sccc3F)c3ncccc23)nc1N`, the Activity (Rattus norvegicus) was 14.3%.
Work on `CCOC(=O)N(CC)c1c(N)nc(-c2nn(Cc3sccc3F)c3ncccc23)nc1N` yielded an EC50 [1] of 240 nM and an Activity (Rattus norvegicus) of 85.6%.
For `CCOC(=O)N(C)c1c(N)nc(-c2nn(Cc3sccc3F)c3ncccc23)nc1N`, the EC50 [1] was 380 nM and the Activity (Rattus norvegicus) was 86.6%.
For `CC(C)OC(=O)N(C)c1c(N)nc(-c2nn(Cc3sccc3F)c3ncccc23)nc1N`, the Activity (Heart [3]) was “Active”, the Emax (Heart [4]) was 60% and the Activity (Heart [2]) was “Dose-dependent effect”. For the same compound, the EC50 (Heart [2]) was 110 nM, the Activity (Heart [5]) was “Active” and the EC50 [1] was 180 nM. The Activity (Rattus norvegicus) was 75.1%.
`CC(C)OC(=O)Nc1c(N)nc(-c2nn(Cc3cccnc3F)c3ncccc23)nc1N` showed an Activity (Rattus norvegicus) of 12.5%.
With `CCN(C(=O)OC(C)C)c1c(N)nc(-c2nn(Cc3cccnc3F)c3ncccc23)nc1N` the Activity (Rattus norvegicus) was 9%.
Work on `CCOC(=O)N(C)c1c(N)nc(-c2nn(Cc3ccc(F)s3)c3ncccc23)nc1N` yielded an Activity (Rattus norvegicus) of 38.4%.
`CC(C)OC(=O)Nc1c(N)nc(-c2nn(Cc3ccc(F)s3)c3ncccc23)nc1N` gave an Activity (Rattus norvegicus) of 17.1%.
In the case of `CCN(C(=O)OC)c1c(N)nc(-c2nn(Cc3ccc(F)s3)c3ncccc23)nc1N`, the Activity (Rattus norvegicus) is reported as 51.9%.
Work on `CCOC(=O)Nc1c(N)nc(-c2nn(Cc3ccc(F)s3)c3ncccc23)nc1N` yielded an Activity (Rattus norvegicus) of 57.4%.
